Data from patent publication US6599885B2, “Derivatives of erythromycin, clarithromycin, roxithromycin or azithromycin with antibiotic and mucolytic activity” (Russinsky Limited, priority 1998, dated 2003).
Values after ≈ are worked out from the molar mass of the structure shown. Like-named read-outs stand apart in the source and are kept apart here.

Test system: Micrococcus luteus
Test: MIC liquid tube assay (antibiotic activity)
Format: cell-based
Details: liquid tube assay in nutrient broth, 37° C., growth observed after 24 and 48 hours, MIC = last concentration where growth inhibited
Method: Micrococcus luteus from stock was streaked on a nutrient agar plate to confirm colony morpbiology, colour and purity. After 24 hours incubation at 37° C. an isolated colony is picked and inoculated into 10 ml of nutrient broth. This is incubated overnight at 37° C. and is subsequently used as the inoculum. 10 mg of each of the test compounds is weighed and dissolved in 10 ml of […] methanol in sterile 20 ml universal containers. This is then diluted with ringers buffer solution to give a concentration of 1 mg/ml. Quantitation of activity is determined using an MIC ([…]) liquid tube assay. For each test substance the following concentrations are set up: 10 μg/ml, 5 μg/ml, 1 μg/ml, 0.5 μg/ml, 0.1 μg/ml, 0.05 μg/ml and 0.01 μg/ml. Each contained nutrient broth and 0.1 ml of overnight culture of Micrococcus luteus. The tubes were incubated at 37° C. and observed for growth after 24 hours and 48 hours. Growth is assessed by dense turbidity, optical density at 660 nm using a spectrophotometer or clarity. The MIC is the last concentration where growth inhibited.

[1] = Micrococcus luteus, read-out: MIC

Row | Compound | MIC | MIC [1]
1 | Erythromycin Propionate-N-Acetylcysteine [1:1.8]-Adduct [Erythromycin-N-acetylcysteinate [1:1.8]] | ≦0.01 μg/ml | 
2 | CCC(=O)O[C@H]1[C@H](O[C@@H]2[C@@H](C)[C@H](O[C@H]3C[C@@](C)(OC)[C@@H](O)[C@H](C)O3)[C@@H](C)C(=O)O[C@H](CC)[C@@](C)(O)[C@H](O)[C@@H](C)C(=O)[C@H](C)C[C@@]2(C)O)O[C@H](C)C[C@@H]1N(C)C [Erythromycin-propionate, Erythromycin Propionate, reference compound] |  | 0.01 to 0.05 µg/mL (≈ 0.0127 to 0.0633 µM)
3 | Erythromycin Propionate-N-Acetylcysteine-[1:1]-Salt [Erythromycin-N-acetylcysteinate [1:1]] | 0.01 to 0.05 µg/mL | 
4 | CC(=O)N[C@@H](CS)C(=O)O.CC[C@H]1OC(=O)[C@H](C)[C@@H](O[C@H]2C[C@@](C)(OC)[C@@H](O)[C@H](C)O2)[C@H](C)[C@@H](O[C@@H]2O[C@H](C)C[C@H](N(C)C)[C@H]2O)[C@](C)(OC)C[C@@H](C)C(=O)[C@H](C)[C@@H](O)[C@]1(C)O [Clarithromycin-N-acetylcysteinate [1:1], Clarithromycin-N-Acetylcysteinate-[1:1]-Salt] | ≦0.01 μg/ml | 
5 | Erythromycin Propionate-N-Acetylcysteine [1:4]-Adduct [Erythromycin-N-acetylcysteinate [1:4]] | 0.05 to 0.1 µg/mL | 
6 | CC[C@H]1OC(=O)[C@H](C)[C@@H](O[C@H]2C[C@@](C)(OC)[C@@H](O)[C@H](C)O2)[C@H](C)[C@@H](O[C@@H]2O[C@H](C)C[C@H](N(C)C)[C@H]2O)[C@](C)(OC)C[C@@H](C)C(=O)[C@H](C)[C@@H](O)[C@]1(C)O [Clarithromycin] |  | ≤ 0.01 µg/mL
7 | Clarithromycin-N-Acetylcysteinate-[1:4]-Salt [Clarithromycin-N-acetylcysteinate [1:4]] | 0.01 to 0.05 µg/mL | 
